Key:
human Duox2 = human Duox2 (Homo sapiens, UniProt Q9NRD8); experiment: ROS chemiluminescence with Drosophila membranes expressing human Duox2; format: biochemical
human Nox1 [1] = biological target: T1, human Nox1 (Homo sapiens, UniProt Q9Y5S8); experiment: ROS chemiluminescence with Drosophila membranes expressing human Nox1; format: biochemical
T1 sequence (Q9Y5S8 1-564): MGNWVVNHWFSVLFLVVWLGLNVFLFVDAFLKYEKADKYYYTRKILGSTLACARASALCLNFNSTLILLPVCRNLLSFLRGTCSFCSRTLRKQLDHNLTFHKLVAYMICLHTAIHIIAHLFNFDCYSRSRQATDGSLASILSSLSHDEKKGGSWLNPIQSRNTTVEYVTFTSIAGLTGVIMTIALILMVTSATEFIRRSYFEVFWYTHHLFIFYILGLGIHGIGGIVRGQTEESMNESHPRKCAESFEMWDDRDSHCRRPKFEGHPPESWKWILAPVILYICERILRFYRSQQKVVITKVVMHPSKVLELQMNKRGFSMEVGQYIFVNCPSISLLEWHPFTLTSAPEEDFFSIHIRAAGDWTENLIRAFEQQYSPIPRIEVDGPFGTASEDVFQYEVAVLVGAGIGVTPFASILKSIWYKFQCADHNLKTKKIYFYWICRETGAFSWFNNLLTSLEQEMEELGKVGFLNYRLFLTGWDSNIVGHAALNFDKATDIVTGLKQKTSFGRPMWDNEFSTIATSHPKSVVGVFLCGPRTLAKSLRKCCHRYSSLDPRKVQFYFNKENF

human Nox5 = biological target: T2, human Nox5 (Homo sapiens, UniProt Q96PH1); experiment: ROS chemiluminescence with Drosophila membranes expressing human Nox5; format: biochemical
T2 sequence (Q96PH1 1-765): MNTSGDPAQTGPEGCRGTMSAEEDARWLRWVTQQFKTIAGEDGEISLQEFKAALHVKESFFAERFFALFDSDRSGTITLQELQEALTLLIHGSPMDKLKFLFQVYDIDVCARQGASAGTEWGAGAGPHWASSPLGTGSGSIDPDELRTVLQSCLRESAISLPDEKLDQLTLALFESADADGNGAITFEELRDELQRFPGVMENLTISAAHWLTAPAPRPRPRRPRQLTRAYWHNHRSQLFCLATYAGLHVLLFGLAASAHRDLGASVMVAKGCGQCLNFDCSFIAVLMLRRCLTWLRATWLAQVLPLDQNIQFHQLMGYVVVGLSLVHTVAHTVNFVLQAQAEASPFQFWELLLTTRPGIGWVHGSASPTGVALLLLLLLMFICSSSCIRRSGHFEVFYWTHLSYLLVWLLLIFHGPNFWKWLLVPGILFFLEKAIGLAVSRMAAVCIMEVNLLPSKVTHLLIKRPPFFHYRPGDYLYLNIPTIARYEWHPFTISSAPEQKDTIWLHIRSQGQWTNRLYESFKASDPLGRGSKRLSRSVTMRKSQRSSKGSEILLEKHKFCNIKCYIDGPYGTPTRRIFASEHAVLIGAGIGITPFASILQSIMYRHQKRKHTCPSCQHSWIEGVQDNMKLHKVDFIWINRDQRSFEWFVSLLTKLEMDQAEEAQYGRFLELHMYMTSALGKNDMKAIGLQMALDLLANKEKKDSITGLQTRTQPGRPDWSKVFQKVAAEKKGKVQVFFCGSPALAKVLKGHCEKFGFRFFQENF

human Duox1 = human Duox1 (Homo sapiens, UniProt Q9NRD9); experiment: ROS chemiluminescence with Drosophila membranes expressing human Duox1; format: biochemical
human Duox1, sequence (Q9NRD9 22-1551): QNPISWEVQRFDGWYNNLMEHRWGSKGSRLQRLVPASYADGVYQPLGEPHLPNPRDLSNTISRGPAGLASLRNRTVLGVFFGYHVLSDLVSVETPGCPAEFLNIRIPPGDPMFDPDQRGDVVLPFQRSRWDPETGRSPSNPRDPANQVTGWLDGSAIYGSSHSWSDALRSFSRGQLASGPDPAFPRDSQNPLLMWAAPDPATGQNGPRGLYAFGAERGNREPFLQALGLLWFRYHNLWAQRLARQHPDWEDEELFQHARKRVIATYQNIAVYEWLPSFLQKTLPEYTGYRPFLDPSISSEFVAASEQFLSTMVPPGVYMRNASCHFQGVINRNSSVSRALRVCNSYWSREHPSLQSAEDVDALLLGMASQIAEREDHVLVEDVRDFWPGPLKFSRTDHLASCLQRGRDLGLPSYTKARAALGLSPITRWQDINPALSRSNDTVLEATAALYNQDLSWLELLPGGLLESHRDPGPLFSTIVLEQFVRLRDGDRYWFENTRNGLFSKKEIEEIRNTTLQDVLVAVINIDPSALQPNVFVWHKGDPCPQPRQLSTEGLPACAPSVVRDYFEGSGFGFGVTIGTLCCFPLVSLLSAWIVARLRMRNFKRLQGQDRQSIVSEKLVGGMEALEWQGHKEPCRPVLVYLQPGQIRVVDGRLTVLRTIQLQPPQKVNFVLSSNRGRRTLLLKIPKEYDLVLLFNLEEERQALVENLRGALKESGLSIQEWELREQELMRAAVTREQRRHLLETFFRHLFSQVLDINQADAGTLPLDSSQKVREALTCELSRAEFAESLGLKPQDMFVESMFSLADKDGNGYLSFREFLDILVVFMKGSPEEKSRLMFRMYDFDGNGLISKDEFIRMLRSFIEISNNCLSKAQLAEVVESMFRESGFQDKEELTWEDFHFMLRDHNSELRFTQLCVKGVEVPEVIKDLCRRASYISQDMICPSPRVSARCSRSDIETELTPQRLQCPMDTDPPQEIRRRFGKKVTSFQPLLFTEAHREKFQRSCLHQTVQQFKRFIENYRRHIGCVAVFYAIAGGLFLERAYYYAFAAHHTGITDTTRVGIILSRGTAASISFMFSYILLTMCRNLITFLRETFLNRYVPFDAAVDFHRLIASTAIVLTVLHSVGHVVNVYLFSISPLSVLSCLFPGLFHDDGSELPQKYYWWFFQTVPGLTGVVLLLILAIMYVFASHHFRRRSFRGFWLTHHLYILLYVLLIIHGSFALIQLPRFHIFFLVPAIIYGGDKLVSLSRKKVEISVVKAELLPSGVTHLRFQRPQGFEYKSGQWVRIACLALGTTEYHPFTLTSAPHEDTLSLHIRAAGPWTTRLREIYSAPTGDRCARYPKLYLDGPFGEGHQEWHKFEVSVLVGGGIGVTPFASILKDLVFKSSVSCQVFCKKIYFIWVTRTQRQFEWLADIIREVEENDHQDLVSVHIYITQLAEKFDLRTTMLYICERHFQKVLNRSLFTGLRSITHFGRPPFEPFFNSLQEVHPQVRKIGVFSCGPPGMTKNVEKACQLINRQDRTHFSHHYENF

human Nox2 [2] = biological target: T3, human Nox2 (Homo sapiens, UniProt P04839); experiment: ROS chemiluminescence with Drosophila membranes expressing human Nox2; format: biochemical
T3 construct: gene CYBB
T3 sequence (P04839 2-570): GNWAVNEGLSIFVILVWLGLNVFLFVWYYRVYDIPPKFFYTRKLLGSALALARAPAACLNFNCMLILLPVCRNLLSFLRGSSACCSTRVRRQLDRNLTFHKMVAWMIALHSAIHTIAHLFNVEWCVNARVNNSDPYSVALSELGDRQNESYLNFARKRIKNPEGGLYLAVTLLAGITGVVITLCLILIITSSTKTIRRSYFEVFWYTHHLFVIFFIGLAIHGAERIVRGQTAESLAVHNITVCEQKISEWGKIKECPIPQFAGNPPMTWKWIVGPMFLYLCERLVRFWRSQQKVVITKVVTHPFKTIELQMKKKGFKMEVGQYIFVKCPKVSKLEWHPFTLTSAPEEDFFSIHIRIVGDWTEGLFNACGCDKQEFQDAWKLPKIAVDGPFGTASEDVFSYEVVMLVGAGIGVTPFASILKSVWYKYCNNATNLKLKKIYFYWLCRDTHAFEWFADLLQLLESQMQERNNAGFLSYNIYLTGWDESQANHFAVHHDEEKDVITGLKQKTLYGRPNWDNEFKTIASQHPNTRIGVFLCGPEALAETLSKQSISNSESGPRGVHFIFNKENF

human Nox4 [3] = biological target: T4, human Nox4 (Homo sapiens, UniProt Q9NPH5); experiment: ROS chemiluminescence with Drosophila membranes expressing human Nox4; format: biochemical
T4 sequence (Q9NPH5 1-578): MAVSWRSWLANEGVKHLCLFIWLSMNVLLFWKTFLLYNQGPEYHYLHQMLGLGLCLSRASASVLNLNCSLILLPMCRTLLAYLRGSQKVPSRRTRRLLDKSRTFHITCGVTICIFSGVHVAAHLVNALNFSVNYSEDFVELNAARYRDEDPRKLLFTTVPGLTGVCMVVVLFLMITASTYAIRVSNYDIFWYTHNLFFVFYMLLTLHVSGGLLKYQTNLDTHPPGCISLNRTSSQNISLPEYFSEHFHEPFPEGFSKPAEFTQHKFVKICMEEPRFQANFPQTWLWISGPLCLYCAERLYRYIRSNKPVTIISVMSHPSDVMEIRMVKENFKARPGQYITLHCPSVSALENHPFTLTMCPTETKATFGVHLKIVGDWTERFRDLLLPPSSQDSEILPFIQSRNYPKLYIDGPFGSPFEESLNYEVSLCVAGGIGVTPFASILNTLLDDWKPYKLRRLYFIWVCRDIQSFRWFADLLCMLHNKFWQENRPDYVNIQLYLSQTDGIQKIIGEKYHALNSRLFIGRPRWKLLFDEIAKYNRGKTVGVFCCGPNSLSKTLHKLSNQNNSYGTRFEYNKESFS

human Nox4 [4] = biological target: T4, human Nox4; experiment: lucigenin chemiluminescence with Drosophila membranes expressing human Nox4; format: cell-based
human Nox1 [5] = biological target: T1, human Nox1
human Nox2 [6] = biological target: T3, human Nox2; experiment: lucigenin chemiluminescence with Drosophila membranes expressing human Nox2; format: cell-based

human Duox2, sequence (Q9NRD8 26-1548): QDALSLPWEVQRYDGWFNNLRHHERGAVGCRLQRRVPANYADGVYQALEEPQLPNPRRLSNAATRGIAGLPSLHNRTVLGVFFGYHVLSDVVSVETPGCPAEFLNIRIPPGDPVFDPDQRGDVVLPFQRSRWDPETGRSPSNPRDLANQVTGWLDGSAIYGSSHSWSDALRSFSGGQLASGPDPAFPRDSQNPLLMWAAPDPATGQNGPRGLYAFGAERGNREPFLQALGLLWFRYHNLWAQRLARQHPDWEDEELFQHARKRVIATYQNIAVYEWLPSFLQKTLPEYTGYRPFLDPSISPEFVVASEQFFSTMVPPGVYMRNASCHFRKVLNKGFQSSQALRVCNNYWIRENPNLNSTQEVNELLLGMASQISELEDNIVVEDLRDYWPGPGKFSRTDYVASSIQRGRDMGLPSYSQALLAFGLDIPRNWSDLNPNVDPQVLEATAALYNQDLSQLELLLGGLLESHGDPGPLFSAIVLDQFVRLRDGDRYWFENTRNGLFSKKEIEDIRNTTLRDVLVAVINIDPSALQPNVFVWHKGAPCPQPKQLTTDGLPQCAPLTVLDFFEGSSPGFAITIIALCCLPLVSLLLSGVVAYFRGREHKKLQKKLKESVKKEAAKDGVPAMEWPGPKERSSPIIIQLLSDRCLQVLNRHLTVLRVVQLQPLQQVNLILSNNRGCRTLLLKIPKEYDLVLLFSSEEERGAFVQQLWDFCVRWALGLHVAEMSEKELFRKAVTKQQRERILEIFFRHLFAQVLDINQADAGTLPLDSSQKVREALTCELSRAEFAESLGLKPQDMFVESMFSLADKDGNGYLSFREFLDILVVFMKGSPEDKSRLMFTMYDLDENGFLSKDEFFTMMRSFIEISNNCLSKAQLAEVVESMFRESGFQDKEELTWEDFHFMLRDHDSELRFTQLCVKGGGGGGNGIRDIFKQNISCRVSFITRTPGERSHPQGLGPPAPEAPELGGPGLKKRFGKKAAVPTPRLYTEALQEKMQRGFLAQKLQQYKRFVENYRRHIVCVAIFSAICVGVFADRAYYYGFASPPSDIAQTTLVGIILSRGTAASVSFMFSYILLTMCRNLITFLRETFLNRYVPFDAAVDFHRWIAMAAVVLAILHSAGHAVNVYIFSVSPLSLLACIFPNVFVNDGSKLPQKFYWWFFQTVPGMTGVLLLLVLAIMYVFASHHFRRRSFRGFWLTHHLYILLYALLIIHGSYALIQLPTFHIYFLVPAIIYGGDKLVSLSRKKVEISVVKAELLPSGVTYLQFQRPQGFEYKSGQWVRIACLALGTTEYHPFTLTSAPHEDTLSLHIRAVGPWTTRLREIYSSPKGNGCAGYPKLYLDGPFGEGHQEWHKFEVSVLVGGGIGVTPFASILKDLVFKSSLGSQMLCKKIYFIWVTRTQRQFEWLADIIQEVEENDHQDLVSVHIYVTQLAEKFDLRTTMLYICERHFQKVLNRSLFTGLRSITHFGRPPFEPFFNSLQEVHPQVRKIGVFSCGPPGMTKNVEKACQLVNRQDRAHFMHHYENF

| IC50 (human Duox2) | IC50 (human Nox1 [1]) | IC50 (human Nox5) | IC50 (human Duox1) | IC50 (human Nox2 [2]) | IC50 (human Nox4 [3]) | Structure (SMILES) | lucigenin chemiluminescence with Drosophila membranes expressing human Nox4 (human Nox4 [4]) | lucigenin chemiluminescence with Drosophila membranes expressing human Nox1 (human Nox1 [5]) | lucigenin chemiluminescence with Drosophila membranes expressing human Nox2 (human Nox2 [6]) |
| --- | --- | --- | --- | --- | --- | --- | --- | --- | --- |
| 200 to 300 nM | 200 to 300 nM | 200 to 300 nM | 200 to 300 nM | 200 to 300 nM | 200 to 300 nM | O=C(Nc1nnc(-c2ccccc2)o1)c1ccc(F)c(C(F)(F)F)c1 [CRB-2131, 4‐fluoro‐N‐(5‐phenyl‐1,3,4‐oxadiazol‐2‐yl)‐3‐(trifluoromethyl) benzamide] | – | – | – |
| – | – | – | – | – | – | c1ccc2c(c1)[I+]c1ccccc1-2 [DPI, Diphenyleneiodonium chloride] | DPI exhibited low Nox inhibitory activity, while GSK2795039 showed very minimal inhibition | DPI exhibited low Nox inhibitory activity, while GSK2795039 showed very minimal inhibition | DPI exhibited low Nox inhibitory activity, while GSK2795039 showed very minimal inhibition |

Source: publication PMC12622451, “NADPH Oxidase Inhibition Promotes Brain Resilience by Attenuating Tauopathy and Neuroinflammation in Alzheimer's Disease” (Advanced Science, 2025)
